# In US20210100859A1, “HERPES SIMPLEX VIRUS (HSV) ANTICANCER THERAPIES” (priority 2019, published 2021):
# What was measured:
# ATP11B and ATP7B = test: Western blot of efflux proteins; type: cell-based, human; details: TR127 and TR182 cells treated with RAMBO and/or CP
# TR127 cells = test: Virus spread: GFP+ RAMBO infected cells by flow cytometry; type: cell-based, human; details: TR127, RAMBO MOI=0.1 1 hr then CP 2 μM 16 hr; presence vs absence of CP
# Method: FIGS. 1A-1J: RAMBO increases cisplatin accumulation in cisplatin-resistant ovarian cancer cells. (FIG. 1A) Representative histogram (left) and quantification (right) of percentage of GFP^+ infected cisplatin resistant ovarian cancer cells. TR127 cells infected with RAMBO (MOI=0.1) for 1 hr and then treated with CP (2 μM) for 16 hr. Data shown are mean percentage of GFP^+ RAMBO infected TR127 cells (±s.d) analyzed by flow cytometry (n=3/group). (FIG. 1B) Quantification of intracellular CP retained inside platin resistant OC cells treated with/without RAMBO. OVCAR8, TR127 and TR182 were treated with/without RAMBO (MOI=0.1) for one hour and then incubated with 2.5 μM Texas-red labeled CP. Twenty-four hours post-infection CP accumulation in cells was analyzed by flow cytometry. Data shown are mean fluorescence intensity (MFI) of Texas-red labeled CP (±s.d., n=3/group). […] Briefly, RNA harvested from OVTOKO cells treated with RAMBO (MOI=1) for 16 hr was analyzed by RNAseq. […] (FIG. 1I) Quantification of Texas-red labeled CP accumulation in TR127 cells knocked down for either ATP7B, ATP11B, or both was analyzed by flow cytometry (n=3/group). (FIG. 1J) Quantification of Texas-red labeled CP accumulation in OVTOKO cells overexpressing (OE) both ATP11B and ATP7B, or control (Ctl). Cells were analyzed by flow cytometry. […]
structure (smiles),measurement,setting,value
"N.N.[Cl][Pt][Cl] [CP, cisplatin]",protein expression of ATP11B and ATP7B,ATP11B and ATP7B,no effect
same,GFP expression (GFP positive tumor cells as indicator of infection),TR127 cells,no difference
